Laboratory results as given in US10039743B2, “Method of treating presbyopia using dithiol compounds and their derivatives” (Encore Health, LLC, priority 2009, dated 2018).

Tests used:
mouse lenses = assay: Increase in elasticity: change in lens diameter (ΔD) under coverslip load in lens organ culture; format: cell-based; details: lipoic acid at concentrations ≥9.6 μM, 8-15 hours incubation, vs control; p<0.0001
Experimental: The relative change in Young's modulus (E) can be calculated as the cubic value derived from the ΔD of the control divided by the ΔD of the experimental or E fractional change=(ΔD con/ΔDexp)^3. Pairs of mouse lenses were incubated in medium 200 supplemented with an antibiotic, an antimycotic, in the presence or absence of lipoic acid (concentrations ranging from 0.5 μM to 500 μM) for 8-15 hours. Each lens was removed from medium, weighed, and photographed on a micrometer scale. A coverslip of known weight (0.17899±0.00200 g) was placed on the lens, and the lens was photographed again on the micrometer scale. The diameter of each lens with and without the coverslip was determined from the photographs. The change in lens diameter produced by the force (coverslip) was computed ΔD=(Dwithcoverslip−Dwithoutcoverslip).

[1] = test system: protein disulfides in the mouse lenses; assay: Decrease in disulfide bonds: protein SH / SS groups in lens homogenates by differential fluorescent alkylation; format: cell-based
Experimental: FIG. 5 depicts a scattergram of the percent of the total protein SH groups in disulfide bonds. Free SH groups were alkylated with 4-acctamido-4′-maleimidylstilbcne-2,2′-sulfonic acid (c, 1 μM, 5 μM, 9.6 μM, 50 μM, 96 μM) or 7-diethylamino-3-(4′maleimidylphenyl)-4-methyl coumarin (500 μM, and 500 μM c). Following removal of the first alkylating agent, the S—S bonds were reduced and alkylated with fluorescein-5-maleimide. Absorption spectra were used to calculated total protein (A280 nm), free protein SH (A322 or A384), and protein SS (A490) using the appropriate extinction coefficients. The symbol $ indicates statistically significant difference of mean with mean of control (c, p≤0.05).
Mouse lenses were homogenized in a denaturing buffer containing a fluorescent alkylating agent to modify the free SH groups. After removing the alkylating agent homogenates were reduced and alkylated with a different fluorescent alkylating agent. Absorption spectra of the modified proteins were used to calculate free protein SH and protein SS groups.

[2] = cited from earlier work

Question: For `O=C(O)CCCCC1CCSS1` (stereo not shown) [lipoic acid, 5-(1,2-dithiolan-3-yl)pentanoic acid], which “change in lens diameter produced by the force (coverslip), ΔD” value (mouse lenses) is on record?
Answer: statistically significant increase

Question: What about the “percent of total protein SH groups in disulfide bonds, mean vs 500 μM control” value ([1]; 500 μM lipoic acid vs 500 μM control, p=0.027) of the same compound?
Answer: significantly different

Question: What about the “protein disulfides (percent of total protein SH groups in disulfide bonds)” value ([1]; lipoic acid at concentrations ≥9.6 μM, vs control, p≤0.05) of the same compound?
Answer: statistically significant decrease

Question: With `N[C@@H](CSSC[C@H](N)C(=O)O)C(=O)O` [cystine, 3,3′-disulanedylbis(2-aminopropanoic acid)] as the compound, how does the “limit of solubility in aqueous solution” value [2] read?
Answer: 20 µM
